# Data as given in patent US12168008B2, “Oxabicycloheptanes for modulation of immune response” (LIXTE BIOTECHNOLOGY, INC., priority 2016, dated 2024).
# Tests used:
# clinical = format: in vivo, human; settings: in vivo; for half-life: 2.33 mg/m2, T1/2
# Procedure: The main objective was to determine the safety, tolerability, and maximum tolerated dose of LB-100 given intravenously daily for three consecutive days every 3 weeks. The secondary objectives were to document any evidence of potential anti-tumor activity and obtain pharmacokinetic data on LB-100 and a metabolite, endothall, in patients receiving LB-100 at the MTD (Quang et al., 2016).
# The plasma concentrations of LB-100 and endothall were measured (Quang et al., 2016) prior to and over 4 hours after completion of the 2-hour infusion at the MTD of 2.33 mg/m2 of LB-100 on day 1 in one patient and on day 1 and 3 in two patients. […] Plasma concentrations of endothall were low throughout the infusion, being below the lower limit of detection (5 ng/mL) in one patient.
# CT26 tumor = experiment: CT26 syngeneic tumor model: tumor growth and survival; format: in vivo, mouse
# Procedure: To test the hypothesis that inhibition of PP2A with LB-100 can enhance immune-mediated antitumor responses, rice were implanted with CT26 tumor cells. CT26 is a murine colon adenocarcinoma expressing low level of PD-L1 and is resistant to anti-PD1 therapy. After about 13 days, mice with tumor size between 30-100 mm^3 were randomized into four treatment groups (PBS control, LB-100 only—0.16 mg/kg, anti-PD-1 only—10 mg/kg, or a combination of both). Treatment was given every 2 days for a total of 28 days. Tumor size was assessed every two days (FIGS. 20A-C). Single agent treatment with anti-PD1 was ineffective in reducing tumor burden or increasing survival. LB-100 alone was able to increase median survival from 21 to 33 days (p=0.02). […]
# Tumor Inoculation and Animal Studies—CT26 tumor cells (0.5×10^6) were injected subcutaneously in the right side of the abdomen. […] Tumor size were monitored with a digital caliper every 2-3 d and expressed as volume (length×width^2×0.5). […]
# LB-100 and aPD-1 combination treatment synergistically elicit rejection of CT26 tumors: To test the hypothesis that PP2A inhibition synergizes with aPD-1 therapy in vivo in aPD-1 refractory tumors, a CT26 tumor was used, which is a murine colorectal carcinoma with high PD-L1 expression but limited response to aPD-1 therapy. […] Tumor growth was assessed every 2 days (FIG. 24A). […]
structure (smiles),measurement,setting,value
CN1CCN(C(=O)C2C(C(=O)O)[C@H]3CC[C@@H]2O3)CC1 (stereo partly drawn) [LB-100],half-life,"clinical; female, human",1.35 h
same,"pharmacokinetics of LB-100, in words",clinical,"low clearance, low volume of distribution, and a short half-life"
same,T1/2,"clinical; male, human, 2.33 mg/m2",0.95 h
same,half-life,"clinical; male, human",1.1 h
same,median survival,"CT26 tumor; control 21 days, treatment every 2 days",33 days
same,"tumor growth, single agent","CT26 tumor; mouse, in vivo",did not significantly decrease tumor growth
